Test results taken from ChEMBL document CHEMBL1201862, “PubChem BioAssay data set” (2004).
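Where inhibition never reached the appropriate level, the endpoint shown equals the highest concentration tested. Otherwise, values were interpolated linearly from a five-concentration, 48-hour dose response in 96-well plates. Abbreviation: GI50, concentration required for 50% inhibition of growth.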 Active and inactive are the calls of the source. No stated cut-off is given here; in the data, active = GI50 up to about 1.1 µM and inactive = higher.

What was measured:
Assay in all cases: NCI-60 cell line screen, 48 h
[1] = system: MDA-MB-435
[2] = system: T47D
[3] = system: LOX IMVI
[4] = system: RXF 393
[5] = system: SF-295
[6] = system: HL-60
[7] = system: HOP-62
[8] = system: PC-3
[9] = system: SK-MEL-5
[10] = system: SK-MEL-28
[11] = system: OVCAR-8
[12] = system: EKVX
[13] = system: OVCAR-3
[14] = system: A498
[15] = system: MDA-N
[16] = system: ACHN
[17] = system: NCI-H23
[18] = system: CAKI-1
[19] = system: HCT-116
[20] = system: K562

Measured: GI50

Cc1cc2c(c(S(=O)(=O)c3ccccc3[N+](=O)[O-])c1)NCCC2
inactive: [1] 25.6 µM | [2] 6.44 µM | [3] 47.2 µM | [4] > 100 µM | [5] 55.6 µM | [6] 26.2 µM | [7] > 100 µM | [8] 27.9 µM | [9] 18.7 µM | [10] 54 µM | [11] > 100 µM | [12] > 100 µM | [13] 65.2 µM | [14] > 100 µM | [15] 34.8 µM | [16] 28.9 µM | [17] 59.7 µM

Nc1ccc2nc3ccc(N)cc3[n+](-c3ccccc3)c2c1
inactive: [1] 50.4 µM | [18] > 100 µM | [2] 7.78 µM | [3] 15.7 µM | [4] > 100 µM | [19] 26.4 µM | [5] 33.3 µM | [6] > 100 µM | [7] 43.3 µM | [8] 29.3 µM | [9] 25.6 µM | [10] > 100 µM | [12] > 100 µM | [13] 6.4 µM | [14] > 100 µM | [20] 69.3 µM | [15] 49.8 µM | [16] 72.3 µM | [17] 22.8 µM

CCN1C/C(=C\c2ccc(Cl)cc2)c2[nH]c(=O)c(C#N)c(-c3ccc(Cl)cc3)c2C1
inactive: [1] > 100 µM | [2] > 100 µM | [3] > 100 µM | [4] > 100 µM | [19] > 100 µM | [6] > 100 µM | [7] > 100 µM | [8] > 100 µM | [9] > 100 µM | [10] > 100 µM | [12] > 100 µM | [13] > 100 µM | [14] > 100 µM | [20] > 100 µM | [15] > 100 µM | [16] > 100 µM | [17] > 100 µM
